# Assay results published in patent US10538681B2, “Aqueous ink for ink jet recording” (Seiko Epson Corporation, priority 2017, dated 2020).
# Assay: water-octanol distribution coefficient (log P value)
# Format: physicochemical
# Details: octanol/water; value defined by OECD Test Guideline 107
# Excerpt: The higher the log P value, the higher the hydrophobicity, and the lower the log P value, the higher the hydrophilicity.
row,logP,Structure (SMILES)
1,0.64,"CC(C)CCOCC(O)CO (stereo not drawn) [3-isopentyloxy-1,2 propanediol]"
2,4.18,"CC(C)CCC(C)(O)C#CC(C)(O)CCC(C)C (stereo not drawn) [Surfynol DF 110 D, 2,5,8,11-tetramethyl-6-dodecyne-5,8-diol]"
3,-0.12,C=C(C)C(=O)OCC(O)CO (stereo not drawn) [glycerin 1-methacrylate]

# Same assay, conditions: value defined by OECD Test Guideline 107
row,water-octanol distribution coefficient (log P),Structure (SMILES)
1,0.85,CCCCCC(=O)OCC(O)CO (stereo not drawn) [α-monocaproin]
2,−0.21,"CCCC(=O)OCC(O)CO (stereo not drawn) [Example 1-butyrine, 1-butyrine]"
3,2.15,"CCCCCCCC(O)CCCC(=O)OCC(O)CO (stereo not drawn) [5-hydroxydodecanoate 2,3-dihydroxypropyl]"

# More lines, now with the values behind:
row,Structure (SMILES),water-octanol distribution coefficient (log P)
1,"CCCCC(O)CO (stereo not drawn) [1,2-hexanediol]",0.7
2,"CCCCC(CC)C(=O)OCC(O)CO (stereo not drawn) [2-ethylhexanoate 2,3-dihydroxypropyl]",1.73
3,"CCCC(=O)OCC(O)COC(=O)CCC [1,3-dibutyrin]",1.59
